Results: patent US12636311B2, “Topically administered strontium-containing complexes for treating pain, pruritis and inflammation” (Galleon Labs LLC, priority 2012, dated 2026)

What was measured:
[1] = tested on: brachioradial pruritus; assay: Brachioradial pruritus, itch severity reported by subject; type: in vivo, human; details: topical treatment, moderate to severe itch
From the text: A person suffered from brachioradial pruritus for over 20 years, a neuropathic condition that is believed to be caused by compression of cervical nerves that innervate the mid-back and arms. They experienced moderate to severe itching typically most intense on their arms, neck and shoulders.
During the last several years, the subject treated their condition with either strontium alone (4% or 6% elemental strontium) and with a spray formulation of strontium+ Gallic Acid+ NAC. […] Reapplication 3 or 4 times over a 10-20 minute period increased that anti-itch benefit and reduced the itching by about 50%. […] If itching remained, a second spray eliminated the remaining itching.
Subsequent blinded tests were performed in which either 4% strontium only or 6% strontium only was directly compared to 4% strontium+ Gallic Acid+ NAC. Since the subject's brachioradial pruritus typically produced itching of approximately equal intensity on both arms in a bilaterally-symmetrical pattern, strontium alone was applied to one arm and strontium+ Gallic Acid+ NAC was applied to the contralateral arm in a double-blinded manner and itch severity was reported by the subject.

[2] = tested on: TCN activation by 70% glycolic acid peel; details: strontium mixed with 70% glycolic acid, pH 0.6; cited from earlier work
[3] = tested on: synchronous neurotransmitter release in response to TCN activation; details: strontium substitutes for calcium; cited from earlier work

| Structure (SMILES) | Anti-itch benefit (in words) [1] | Suppression of burning pain and stinging [2] [%] | Reduction of amplitude of synchronous neurotransmitter release [3] |
| --- | --- | --- | --- |
| CN(C)CCOC(c1ccccc1)c1ccccc1 [diphenhydramine] | limited benefit only when the itching was mild | – | – |
| C[C@]12CCC(=O)C=C1CC[C@@H]1[C@@H]2[C@@H](O)C[C@@]2(C)[C@H]1CC[C@]2(O)C(=O)CO [hydrocortisone] | no anti-itch benefit | – | – |
| [Sr+2] [strontium] | – | ≥ 80 | more than 90% |
